Measurements from PubChem BioAssay AID1259407 (Chemical Carcinogenesis Research Information System (CCRIS), 2018).
Active and inactive are the calls of the source. No rule for the calls is given here.

Tested on: CCRIS mutagenicity, Ames/micronucleus/aberration tests
Test: CCRIS mutagenicity studies
[1] = Test System: AMES SALMONELLA TYPHIMURIUM, Strain/Indicator: TA98, Metabolic Activation: NONE, Method: STANDARD PLATE
[2] = Test System: AMES SALMONELLA TYPHIMURIUM, Strain/Indicator: TA100, Metabolic Activation: NONE, Method: STANDARD PLATE
[3] = Test System: AMES SALMONELLA TYPHIMURIUM, Strain/Indicator: TA102, Metabolic Activation: NONE, Method: STANDARD PLATE

Measured: mutagenic call

CCC1(c2ccccc2)C(=O)NC(=O)NC1=O
inactive: Test System: AMES SALMONELLA TYPHIMURIUM, Strain/Indicator: TA97, Metabolic Activation: HAMSTER LIVER S-9, AROCLOR 1254 (10%), Method: PREINCUBATION inactive; negative | Test System: AMES SALMONELLA TYPHIMURIUM, Strain/Indicator: TA97, Metabolic Activation: NONE, Method: PREINCUBATION inactive; negative | Test System: AMES SALMONELLA TYPHIMURIUM, Strain/Indicator: TA97, Metabolic Activation: NONE, Method: STANDARD PLATE inactive; negative | Test System: AMES SALMONELLA TYPHIMURIUM, Strain/Indicator: TA97, Metabolic Activation: RAT LIVER S-9, AROCLOR 1254 (10%), Method: PREINCUBATION inactive; negative | Test System: AMES SALMONELLA TYPHIMURIUM, Strain/Indicator: TA97, Metabolic Activation: S-9, Method: STANDARD PLATE inactive; negative | Test System: AMES SALMONELLA TYPHIMURIUM, Strain/Indicator: TA98, Metabolic Activation: HAMSTER LIVER S-9, AROCLOR 1254 (10%), Method: PREINCUBATION inactive; negative | Test System: AMES SALMONELLA TYPHIMURIUM, Strain/Indicator: TA98, Metabolic Activation: NONE, Method: PREINCUBATION inactive; negative | [1] inactive; negative | Test System: AMES SALMONELLA TYPHIMURIUM, Strain/Indicator: TA98, Metabolic Activation: RAT LIVER S-9, AROCLOR 1254 (10%), Method: PREINCUBATION inactive; negative | Test System: AMES SALMONELLA TYPHIMURIUM, Strain/Indicator: TA98, Metabolic Activation: RAT, LIVER, S-9, AROCLOR 1254, Method: STANDARD PLATE inactive; negative | Test System: AMES SALMONELLA TYPHIMURIUM, Strain/Indicator: TA98, Metabolic Activation: S-9, Method: STANDARD PLATE inactive; negative | Test System: AMES SALMONELLA TYPHIMURIUM, Strain/Indicator: TA100, Metabolic Activation: HAMSTER LIVER S-9, AROCLOR 1254 (10%), Method: PREINCUBATION inactive; negative | Test System: AMES SALMONELLA TYPHIMURIUM, Strain/Indicator: TA100, Metabolic Activation: NONE, Method: PREINCUBATION inactive; negative | [2] inactive; negative | Test System: AMES SALMONELLA TYPHIMURIUM, Strain/Indicator: TA100, Metabolic Activation: RAT LIVER S-9, AROCLOR 1254 (10%), Method: PREINCUBATION inactive; negative | Test System: AMES SALMONELLA TYPHIMURIUM, Strain/Indicator: TA100, Metabolic Activation: RAT, LIVER, S-9, AROCLOR 1254, Method: STANDARD PLATE inactive; negative | Test System: AMES SALMONELLA TYPHIMURIUM, Strain/Indicator: TA100, Metabolic Activation: S-9, Method: STANDARD PLATE inactive; negative | [3] inactive; negative | Test System: AMES SALMONELLA TYPHIMURIUM, Strain/Indicator: TA102, Metabolic Activation: S-9, Method: STANDARD PLATE inactive; negative | Test System: AMES SALMONELLA TYPHIMURIUM, Strain/Indicator: TA1535, Metabolic Activation: HAMSTER LIVER S-9, AROCLOR 1254 (10%), Method: PREINCUBATION inactive; negative | Test System: AMES SALMONELLA TYPHIMURIUM, Strain/Indicator: TA1535, Metabolic Activation: RAT LIVER S-9, AROCLOR 1254 (5 OR 10%), Method: PREINCUBATION inactive; negative | Test System: AMES SALMONELLA TYPHIMURIUM, Strain/Indicator: TA1535, Metabolic Activation: RAT, LIVER, S-9, AROCLOR 1254, Method: STANDARD PLATE inactive; negative | Test System: AMES SALMONELLA TYPHIMURIUM, Strain/Indicator: TA1537, Metabolic Activation: NONE, Method: STANDARD PLATE inactive; negative | Test System: AMES SALMONELLA TYPHIMURIUM, Strain/Indicator: TA1537, Metabolic Activation: RAT, LIVER, S-9, AROCLOR 1254, Method: STANDARD PLATE inactive; negative | Test System: AMES SALMONELLA TYPHIMURIUM, Strain/Indicator: TA1538, Metabolic Activation: NONE, Method: STANDARD PLATE inactive; negative | Test System: AMES SALMONELLA TYPHIMURIUM, Strain/Indicator: TA1538, Metabolic Activation: RAT, LIVER, S-9, AROCLOR 1254, Method: STANDARD PLATE inactive; negative | Test System: MOUSE LYMPHOMA, Strain/Indicator: L5178Y (TK+/-)/TRIFLUROTHYMIDINE, Metabolic Activation: NONE, Method: SUSPENSION/PLATE inactive; negative | Test System: MOUSE LYMPHOMA, Strain/Indicator: L5178Y (TK+/TK-), Metabolic Activation: NONE, Method: SUSPENSION/PLATE inactive; negative | Test System: MOUSE LYMPHOMA, Strain/Indicator: L5178Y (TK+/TK-), Metabolic Activation: RAT, LIVER, S-9, Method: SUSPENSION/PLATE inactive; negative | Test System: UDS RAT HEPATOCYTES, Strain/Indicator: BROMODEOXYURIDINE INCORP, Metabolic Activation: NONE, Method: FLOW CYTOMETRIC ANALYSIS inactive; negative | Test System: UDS RAT HEPATOCYTES, Strain/Indicator: THY INCORP, Metabolic Activation: NONE, Method: AUTORADIOGRAPHY inactive; negative | Test System: UDS RAT HEPATOCYTES, Strain/Indicator: THY INCORP, Metabolic Activation: NONE, Method: LIQUID SCINTILLATION COUNTING inactive; negative
active: Test System: AMES SALMONELLA TYPHIMURIUM, Strain/Indicator: TA1535, Metabolic Activation: NONE, Method: STANDARD PLATE active; positive | Test System: CHINESE HAMSTER V-79, Strain/Indicator: V-79/6-THIOGUANINE, Metabolic Activation: NONE, Method: REPLATING active; positive | Test System: MOUSE LYMPHOMA, Strain/Indicator: L5178Y (TK+/TK-), Metabolic Activation: RAT, LIVER, S-9, AROCLOR 1254, Method: SUSPENSION/PLATE active; positive

CC1=CCC(O)(C(C)C)CC1 (stereo not given)
inactive: [1] inactive; negative | Test System: AMES SALMONELLA TYPHIMURIUM, Strain/Indicator: TA98, Metabolic Activation: RAT, LIVER, S-9, Method: STANDARD PLATE inactive; negative | [2] inactive; negative | Test System: AMES SALMONELLA TYPHIMURIUM, Strain/Indicator: TA100, Metabolic Activation: RAT, LIVER, S-9, Method: STANDARD PLATE inactive; negative | [3] inactive; negative | Test System: AMES SALMONELLA TYPHIMURIUM, Strain/Indicator: TA102, Metabolic Activation: RAT, LIVER, S-9, Method: STANDARD PLATE inactive; negative

c1ccc(CNc2ncnc3nc[nH]c23)cc1
inactive: [1] inactive; negative | Test System: AMES SALMONELLA TYPHIMURIUM, Strain/Indicator: TA98, Metabolic Activation: RAT LIVER S-9, 3-METHYLCHOLANTHRENE AND PHENOBARBITAL, Method: STANDARD PLATE inactive; negative | Test System: AMES SALMONELLA TYPHIMURIUM, Strain/Indicator: TA98, Metabolic Activation: RAT, LIVER, S-9, AROCLOR, Method: STANDARD PLATE inactive; negative | [2] inactive; negative | Test System: AMES SALMONELLA TYPHIMURIUM, Strain/Indicator: TA100, Metabolic Activation: RAT LIVER S-9, 3-METHYLCHOLANTHRENE AND PHENOBARBITAL, Method: STANDARD PLATE inactive; negative | Test System: AMES SALMONELLA TYPHIMURIUM, Strain/Indicator: TA100, Metabolic Activation: RAT, LIVER, S-9, AROCLOR, Method: STANDARD PLATE inactive; negative | Test System: CHINESE HAMSTER V-79, Strain/Indicator: V-79/6-THIOGUANINE (HGPRT), Metabolic Activation: NONE, Method: STANDARD PLATE inactive; negative

CC(=O)O.CC(=O)O.O.O.[O]=[U]=[O]
active: Test System: Chinese hamster ovary, Strain/Indicator: EM9 (HPRT)/6-Thioguanine, Metabolic Activation: None, Method: Standard plate active; positive, em9 cho cells are xrcc1-deficient.
inactive: Test System: Chinese hamster ovary, Strain/Indicator: AA8 (HPRT)/6-Thioguanine, Metabolic Activation: None, Method: Standard plate inactive; negative
